{
  "source": "paper PMC10707934",
  "about": "“Design and Synthesis of Novel α-Methylchalcone Derivatives, Anti-Cervical Cancer Activity, and Reversal of Drug Resistance in HeLa/DDP Cells” (Molecules, 2023)",
  "type_in_all_cases": "cell-based, human",
  "key": {"Bax [1]": {"tested_on": "Bax", "test": "Western blot, Bax expression in HeLa cells", "conditions": "24 h, 2.5, 5, and 10 μM", "description": "(§1) HeLa cells were cultured in 60 mm Petri dishes at a density of 1.0 × 10^6 cells per dish and treated with 0.1% DMSO (vehicle), positive control chalcone (20 μM), and different concentrations of compound 3k (2.5, 5, and 10 μM), respectively. Following a 24 and 48 h incubation period, the cells were harvested via centrifugation and subsequently washed twice with PBS that had been chilled to 0 °C. Next, the cells were homogenized using RIPA lysis buffer (Solarbio, Beijing, China) and supplemented with 1% PMSF (MP Biomedicals, 0754-25G, CAS:329-98-6, Santa Ana, CA, USA) and 1% mixed phosphatase inhibitor (Solarbio, Beijing, China). […]\n(§2) Subsequently, the protein concentrations were determined utilizing a BCA Protein Assay Kit (Solarbio, China). An equivalent quantity of the proteins (12 μg) was fractionated via 8–12% sodium dodecyl sulfate–polyacrylamide gel electrophoresis (SDS-PAGE) and transferred onto nitrocellulose membranes (Amersham Biosciences, Amersham, UK). […] The blots were subsequently visualized using enhanced chemiluminescence (Biosharp, Shanghai, China) and detected utilizing a PE 0723 imager (ProteinSimple, Silicon Valley, CA, USA). Each experiment was conducted in triplicate at minimum and analyzed employing Image J software (V1.8.0.112). β-actin(ab198991) rabbit mAb, goat anti-rabbit IgG (H + L) HRP—#S0001 (Affinity). […]"}, "Bcl-2 [2]": {"tested_on": "Bcl-2", "test": "Western blot, Bcl-2 expression in HeLa cells", "conditions": "24 h, 5 and 10 μM", "description": "as §1, §2"}, "Bax [3]": {"tested_on": "Bax", "test": "Western blot, Bax expression in HeLa/DDP cells", "conditions": "24 h, 5 and 10 μM", "description": "as §1, §2"}, "Bcl-2 [4]": {"tested_on": "Bcl-2", "test": "Western blot, Bcl-2 expression in HeLa/DDP cells", "conditions": "24 h, 2.5, 5, and 10 μM", "description": "as §1, §2"}, "P-gp": {"tested_on": "P-gp", "test": "Western blot, P-gp expression in HeLa/DDP cells", "conditions": "48 h, 0.25, 0.5, or 1 μM"}, "HeLa/DDP cells": {"tested_on": "HeLa/DDP cells", "test": "Rhodamine 123 accumulation in HeLa/DDP cells", "conditions": "48 h, 0.5 and 1 μM", "description": "The experimental procedure involved the addition of 1 drop of PBS to each well of a 12-well plate, followed by the placement of cell crawlers and removal of excess PBS. HeLa/DDP cells were then plated at a concentration of 1.5 × 10^5 cells/mL, with 1 mL per well, and cultured for a duration of 24 h. A blank control group was established alongside a positive group treated with verapamil (6 μM) and an intervention group treated with 3k (0.25, 0.5, and 1 μM) for a duration of 48 h. The drug-containing culture medium was subsequently washed with PBS three times, with each wash lasting 5 min. The Rh123 master mix was diluted with culture medium to create a 20 μM Rh123 buffer, which was subsequently incubated at a temperature of 37 °C for a duration of 1 h. Following this incubation period, the Rh123 buffer was removed, and the cells were subjected to three consecutive washes with PBS, each lasting for 10 min. Subsequently, a fixation process was conducted using 4% paraformaldehyde at a volume of 1 mL per well, with a duration of 20 min. […] Subsequently, the side containing cells was affixed onto the liquid and made ready for measurement. The cells were then examined using a fluorescence microscope (Leica, Microsystems CMS GmbH, GER) equipped with a fluorescein filter, and the fluorescence intensity of each distinct group was assessed."}, "[5]": {"tested_on": "α-tubulin, β-tubulin in HeLa/DDP cells", "test": "Immunofluorescence assay of microtubules, HeLa/DDP", "conditions": "24 h, 3k 1, 2, and 4 μM, paclitaxel 2.0 μM", "description": "The cells were then fixed by adding 400 μL of 4% paraformaldehyde to each well and incubating for 30 min. 0.1% Triton was added at a volume of 400 μL per well and allowed to incubate for 10 min. Following this, goat serum (10%) was added at 400 μL per well and incubated for 40 min. Primary antibodies (α-tubulin, β-tubulin) were then incubated overnight at a temperature of 4 °C. Subsequently, secondary antibodies (α-mouse, β-rabbit) were incubated for 1.5 h. DAPI staining was performed at 400 μL per well for 5 min, followed by a wash with PBS. Cell climbing tablets were removed and inverted onto slides with sealer. Photographs were captured using a fluorescent inverted microscope."}, "[6]": {"tested_on": "α-/β-tubulins in HeLa/DDP cells", "test": "Western blot of polymerized and dissociated α-/β-tubulins, HeLa/DDP", "conditions": "versus control", "description": "HeLa cells were cultured in 60 mm Petri dishes at a density of 1.0 × 10^6 cells per dish and treated with 0.1% DMSO (vehicle), positive control chalcone (20 μM), and different concentrations of compound 3k (2.5, 5, and 10 μM), respectively. Following a 24 and 48 h incubation period, the cells were harvested via centrifugation and subsequently washed twice with PBS that had been chilled to 0 °C. Next, the cells were homogenized using RIPA lysis buffer (Solarbio, Beijing, China) and supplemented with 1% PMSF (MP Biomedicals, 0754-25G, CAS:329-98-6, Santa Ana, CA, USA) and 1% mixed phosphatase inhibitor (Solarbio, Beijing, China). The resulting lysates were then incubated on ice for 30 min, intermittently vortexed every 5 min, and subsequently centrifuged at 12,000 rpm for 20 min to collect the supernatants.\nSubsequently, the protein concentrations were determined utilizing a BCA Protein Assay Kit (Solarbio, China). An equivalent quantity of the proteins (12 μg) was fractionated via 8–12% sodium dodecyl sulfate–polyacrylamide gel electrophoresis (SDS-PAGE) and transferred onto nitrocellulose membranes (Amersham Biosciences, Amersham, UK). Following this, the membranes were obstructed with 5% nonfat dried milk in TBS containing 1% Tween-20 for a duration of 2 h at ambient temperature and were subjected to overnight incubation with specific primary antibodies (CST, Boston, MA, USA) at 4 °C. Following three washes in TBST, the membranes were subjected to incubation with the suitable HRP-conjugated secondary antibodies at ambient temperature for a duration of 2 h. The blots were subsequently visualized using enhanced chemiluminescence (Biosharp, Shanghai, China) and detected utilizing a PE 0723 imager (ProteinSimple, Silicon Valley, CA, USA). Each experiment was conducted in triplicate at minimum and analyzed employing Image J software (V1.8.0.112). β-actin(ab198991) rabbit mAb, goat anti-rabbit IgG (H + L) HRP—#S0001 (Affinity). Bax (ab289364), Bcl-2 (ab218123), MDR1/ABCB1 (E1Y7B) rabbit mAb #13342 (CST).\nPolymerized and free microtubule proteins were extracted using the methods described in references, respectively. Following drug intervention, the cells were subjected to two washes with preheated microtubule protein buffer MTSB at 37 °C. Subsequently, 70 μL of MTSB was added, and the cells were lysed for 10 min at 37 °C in a constant temperature chamber shielded from light. The cells were then scraped with a spatula and centrifuged at 14,000 r/min for 10 min at room temperature. The resulting supernatant, which represented the free state microtubule protein suspension, was subsequently removed. The remaining precipitate was treated with RIPA lysis solution, followed by lysis on ice for a duration of 30 min. Subsequently, centrifugation was performed at a temperature of 4 °C and a speed of 12,000 revolutions per minute for a duration of 20 min. The resulting supernatant was collected as a suspension of polymerized microtubule protein. The Western blotting procedure was the same as in Section 3.3.4. α-Tubulin (DM1A) Mouse mAb#3873 (CST), β-Tubulin (D2N5G) Rabbit mAb #15115 (CST), CoraLite488-conjugated Goat Anti-Mouse lgG(H+L) (Proteintech); CoraLite488-conjugated Goat Anti-Rabbit lgG(H+L) (Proteintech); β-actin(ab198991) rabbit mAb, Goat Anti-Mouse IgG H&L (HRP) (ab6789); Goat anti-Rabbit IgG (H+L) HRP—#S0001 (Affinity)."}},
  "data": [
    {"compound": "COc1ccc(/C=C(\\C)C(=O)c2ccc(Cl)c(Cl)c2)cc1OC", "note": "[Compound 3k, (E)-1-(3,4-Dichlorophenyl)-3-(3,4-dimethoxyphenyl)-2-methylprop-2-en-1-one]", "values": [
      {"measurement": "Bax expression versus control group", "setting": "Bax [1]", "value": "significant upregulation"},
      {"measurement": "Bcl-2 expression versus control group", "setting": "Bcl-2 [2]", "value": "downregulation"},
      {"measurement": "Bax expression versus control group", "setting": "Bax [3]", "value": "significant increase"},
      {"measurement": "Bcl-2 expression versus control group", "setting": "Bcl-2 [4]", "value": "significantly downregulate"},
      {"measurement": "expression of P-gp", "setting": "P-gp", "value": "remained unchanged"},
      {"measurement": "average fluorescence intensity emitted by rhodamine 123", "setting": "HeLa/DDP cells", "value": "notably greater than that of the control group"},
      {"measurement": "microtubule immunofluorescence (α green, β red)", "setting": "[5]", "value": "attenuation of the green and red fluorescence of the enclosed cells"},
      {"measurement": "expression of polymerized β microtubulin", "setting": "[6]; 24 h, 1, 2, and 4 μM", "value": "significant reduction"},
      {"measurement": "expression of polymerized α-microtubulin", "setting": "[6]; 24 h, 2 and 4 μM", "value": "significant decrease"},
      {"measurement": "expression of dissociated state α and β microtubule proteins", "setting": "[6]; 24 h, 3k 4 μM, colchicine and paclitaxel 2.0 μM", "value": "significant increase"}
    ]}
  ]
}
